Literature values in article PMC2866165 (Nuclear medicine and biology, 2010).

Experiments:
[1] = system: PDE3A; conditions: read-out: IC50 for PDE3A
[2] = system: PDE4D; conditions: read-out: IC50 for PDE4D

For COc1ccc(Cc2nccc3cc(OC)c(OC)cc23)cc1OC [Papaverine, 1-(3,4-dimethoxybenzyl)-6,7-dimethoxyisoquinoline], the “Biological half-life in rat plasma” value is listed as 15 min, the IC50 [1] is listed as 1300 nM and the IC50 [2] is listed as 320 nM.
